What is called CC50 is the concentration giving 50% cytotoxicity. What is called IC50 is the midpoint of a concentration-inhibition curve.

A short description of data set [1]: Cytotoxicity assay (MTT), J774A.1 cell line. In kind it is cell-based. The following applies: mouse. How it is done: (§1) Adherent BALB/c mouse macrophage cell line J774A.1 (ATCC® TIB 67™) and suspension human acute monocytic leukemic cell line THP-1 (ATCC® TIB-202™) were purchased from DSMZ, Germany were cultured and maintained in DMEM medium (Gibco) and RPMI 1640 (Sigma), respectively, supplemented with 10% FBS, 1% penicillin-streptomycin (Sigma) and L-glutamine 200 mM (Sigma), at 37 °C, 5% CO2.
(§2) Cell lines J774A.1 and THP-1 were used to estimate CC50 of the peroxides. Cells were plated in 96-well flat bottom culture plates (VWR) at 5 × 10^5 cells/mL. The monocytic cell line THP-1 was differentiated in RPMI medium with phorbol myristate acetate (PMA) (25 ng/mL; Sigma) for 24 h, followed by a washing step with RPMI medium. Six serial concentrations of the compounds (Table 3) were added in four replicates and the plates were incubated at 37 °C ± 1 °C, 5% CO2 for 48 h. An untreated control (cells in DMEM or RPMI medium plus 0.5% DMSO as vehicle) and blank (medium alone) were plated out in quadruplicate. After the incubation period, 20 µL/well of MTT [3-(4,5-dimethylthiazol-2-yl)-2,5-diphenyltetrazolium bromide] was added to a final concentration of 5 µg/mL in 1× phosphate-buffered saline (PBS, Merck), with an additional 4 h incubation at 36 °C, as previously described. The formazan salts were resuspended in 2-propanol (Merck) and the cell viability was determined by measuring absorbance with a Synergy ™HTX Multi Mode Microplate Reader at 595 nm (Dynex Technologies). The CC50 values were calculated fitting the data as a non-linear regression with variable slope using a dose-response inhibitory model, in the GraphPad Prism V 8.0 program. Each compound was tested in three independent assays.

A short description of data set [2]: Cytotoxicity assay (MTT), PMA-differentiated THP-1 cell line. In kind it is cell-based. The following applies: human. How it is done: as §1, §2
For data set [3], the system named is L. infantum IMT151 promastigotes. The experiment in a line: Promastigotes susceptibility assay (MTT), L. infantum. The class given is cell-based. The following applies: Leishmania infantum; 48 h incubation, MTT; read-out: IC50 ± SD, L. infantum promastigotes. How it is done:
Promastigote forms of strains of L. infantum (MHOM/PT/1988/IMT151) and L. donovani (MHOM/BD/2006/BD14) were cultured at 24 °C ± 1 °C in M199 medium (Sigma) supplemented with 20% foetal bovine serum (FBS, Sigma) and 1% penicillin-streptomycin (Sigma). L. infantum strain belongs to IHMT, Portugal cryobank collection and the L. donovani strain was kindly provided by Dr. Katrin Kuhls, Technical University of Applied Sciences Wildau, Germany. Promastigotes used for the experiments had 7 to 12 in vitro passages in culture after isolation from mice, in order to keep virulence, and were used when the stationary phase of growth was reached (day 5 to 6), corresponding to the highest promastigotes density.
For the determination of the antileishmanial activity and IC50, promastigotes of L. infantum and L. donovani were plated in 96-well flat bottom culture plates at a concentration of 5 × 10^6 parasites/mL and incubated with six serial concentrations of each compound (Table 3), in four replicates, including the control drugs, amphotericin B, miltefosine and pentamidine. One untreated control (parasites with M199 medium plus 0.5% DMSO as vehicle solution) and one blank (M199 medium alone) were also plated out in quadruplicate. After 48 h incubation at 24 °C ± 1 °C, the inhibitory activity of the compounds was evaluated using the MTT, as previously described, with an additional 4 h incubation at 36 °C. Results were expressed in terms of percentage of parasite viability relative to nontreated control and IC50 was calculated fitting the data as a non-linear regression with variable slope using a dose-response inhibitory model, in the GraphPad Prism V 8.0 program. Each compound was tested in three independent assays. […]

Data set [4] concerns L. infantum promastigotes. Nature of the data set: Flow cytometry analysis of mitochondrial membrane potential (JC-1). To be noted: 24 h. In kind it is cell-based, Leishmania infantum. How it is done:
(§3) The L. infantum strain (MHOM/PT/1988/IMT151) was chosen for the cytometry analysis and promastigotes at a concentration of 1 × 10^7 parasites/mL were tested against the three compounds evaluated in the intracellular amastigotes assay (LC132, LC137 and LC138). Flow cytometry analysis were performed in a CytoFlex flow cytometer (Beckman Coulter), at an excitation wavelength of 488 nm (blue laser). Data acquisition were collected and registered using channels FL1 (flurescein isothiocyanate, FITC) with a BP filter (525 ± 40 nm) for Fluorescein and FL2 (IP) with a BP filter (570 ± 20 nm) for propidium iodide (PI) and 10,000 total events per sample were analysed using CytExpert v2.0.0.153 software. Samples were analysed in triplicates and two to three independent experiments were performed. Values are expressed as a percentage of cells for a given marker, relatively to the number of cells analysed ± standard error of mean (SEM).
Mitochondrial damage was evaluated through the analysis of the mitochondrial membrane potential with MitoProbe™ JC-1 Assay Kit for Flow Cytometry (Molecular Probes, Invitrogen). Treated L. infantum promastigotes were incubated with IC50 and 2 × IC50 of the tested compounds and amphotericin B for 24 h, at 24 °C ± 1 °C. […] Cells were analysed by flow cytometry. […]

The test system of data set [5] is L. infantum promastigotes. Nature of the data set: Flow cytometry detection of reactive oxygen species (CM-H2DCFDA). The class given is cell-based, Leishmania infantum. To be noted: 2 × IC50, 5 h. How it is done: as §3
For the detection of reactive oxygen species (ROS), a cell permeable probe CM-H2DCFDA (5 µg/mL Molecular Probes, Invitrogen) was used. Briefly, promastigotes were incubated with IC50 and 2 × IC50 of the tested compounds and amphotericin B for 5 h and 24 h, at 24 °C. […] Parasites were resuspended in normal medium (M199 medium) and fluorescence was measured by flow cytometry (blue laser), and the signals registered in the FL1/FITC channel.
In general terms: A flow cytometer gives signals particle by particle.

In data set [6] the test system is L. infantum promastigotes. Nature of the data set: Promastigotes DNA fragmentation (agarose gel). In kind it is cell-based, Leishmania infantum. The following applies: IC50 concentrations, 24 h. How it is done:
2 mM H2O2 was used as DNA damage inductor and non-treated cells were used as control. After centrifugation (10 min, 800× g) DNA was extracted using a commercial extraction kit (High Template DNA Preparation Kit, Roche, Germany), according to the manufacturer’s instructions.

For `C[C@@H]1[C@H](O)[C@@H](C)/C=C/C=C/C=C/C=C/C=C/C=C/C=C/[C@H](O[C@@H]2O[C@H](C)[C@@H](O)[C@H](N)[C@@H]2O)C[C@@H]2O[C@](O)(C[C@@H](O)C[C@@H](O)[C@H](O)CC[C@@H](O)C[C@@H](O)CC(=O)O[C@H]1C)C[C@H](O)[C@H]2C(=O)O` [AmB, amphotericin B, reference compound], the CC50 at 48 h in data set [1] worked out at 71.9 ± 5.4 µM; in data set [2] it was 23.2 ± 3 µM. In addition, the concentration for half-maximal inhibition (IC50) in data set [3] turned out to be 0.2 µM. For the same compound, the “population percentage of JC-1 aggregates” value is recorded as 69.1% in data set [4] (2 × IC50 concentration) and 64.9% in data set [4] (IC50 concentration).
Take `CCOC(=O)C1CCC2(CC1)OOC1(OO2)C2CC3CC(C2)CC1C3` (stereo not shown) [LC138]: the CC50 at 48 h in data set [1] (J774A.1 macrophage cells, 48 h incubation, MTT, read-out: CC50 ± SD, J774A.1 Cell Line) is 528 ± 54 µM; in data set [2] (PMA-differentiated THP-1 cells, 48 h incubation, MTT, read-out: CC50 ± SD, THP-1 Cell Line), 2839 ± 15 µM. Further, in data set [3], the half-maximal inhibitory concentration (IC50) is 125 ± 1.6 µM. In addition, the “ROS levels (FITC+), early phase of exposure” value in data set [5] was “slight increase”. For the same compound, the “genomic DNA fragmentation” value in data set [6] was “did not produce DNA fragmentation”.

Source of the values: publication PMC9024893, “1,2,4-Trioxolane and 1,2,4,5-Tetraoxane Endoperoxides against Old-World Leishmania Parasites: In Vitro Activity and Mode of Action” (Pharmaceuticals, 2022).
